Here are results for 6 compounds from paper PMC12474757, “Paving the way for future PSMA inhibitors: insights from comparative preclinical evaluations of structure modifications” (EJNMMI Radiopharmacy and Chemistry, 2025).

The term Ki denotes the dissociation constant of the complex between target and ligand, obtained from inhibition or displacement.

Where two headings read alike, the source gives them in different places.

Series [1] can be described thus: Binding to human plasma proteins. The class given is in vitro ADME. The settings on record: human plasma, 37 °C, n = 2, read-out: Protein binding (%) (converted). The procedure:
(§1) Binding to human plasma proteins was determined following this procedure: 10 µL of the ⁶⁸Ga-P15 with radioactivity of 45 kBq/100 µL was mixed with 190 µL of human plasma. The sample was then incubated at 37 °C. After 0, 30, 60 and 120 min 25 µL of the sample was collected, applied to the appropriate column and centrifuged at 2000 g for 2 minutes. The radioactivity of the samples was then measured using a gamma counter 2480 Wizard^2 (PerkinElmer, Waltham, MA, USA), and then the binding to plasma proteins was calculated using the following formula % plasma protein binding = (Aelution/Atotal)×100. The same procedure was applied when determining binding to plasma proteins of ⁶⁸Ga-P16, ⁶⁸Ga-P19, and ⁶⁸Ga-PSMA-617.

Series [2] concerns LNCaP tumour-bearing mice. Kind of series: Ex vivo biodistribution in LNCaP tumour-bearing mice. Set-up: species or system SCID mice. Particulars: for tumour-to-blood ratio / tumour-to-muscle ratio / tumour-to-kidney ratio: mean ± SD, n = 4. The procedure: The eight-week-old male SCID mice (Charles River, Massachusetts, USA) were used to generate the mouse tumour model. The implantation of 10 million LNCaP cells (ATCC, Virginia, USA) per mouse in a 1:1 mixture of Matrigel matrix (Corning, New York, USA) was performed subcutaneously behind the right shoulder of the mouse. Tumours of adequate size, representing a volume of 100–300 mm³, were observed after five to six weeks.
Ex vivo biodistribution of PSMA inhibitors in tumor-bearing mice was conducted as follows. Concisely, 30 µL of acetate buffer was added to the each ⁶⁸Ga -labelled inhibitor, namely: ⁶⁸Ga-P15, ⁶⁸Ga-P16, ⁶⁸Ga-P19, and ⁶⁸Ga-PSMA-617 to achieve physiological pH. Mice were r.o. injected with 100 µL of labelled inhibitor (2 MBq, approximately 0.5 µg of the inhibitor). Animals were divided into two groups for biodistribution studies at 1 and 2 h after administration of the respective ^68Ga-labelled PSMA inhibitor. The animals were sacrificed and autopsied after euthanasia, and organs: spleen, pancreas, stomach, intestine, kidney, liver, heart, lung, muscle, bone, and tumour were collected in scintillation vials. The vials containing the samples were weighed and measured in a Wizard2 gamma counter (PerkinElmer, USA). The measured values were then adjusted for radionuclide decay and expressed as a percentage of administered dose per gram of organ (%ID/g). The NanoScan® hybrid Positron Emission Tomography/Computed Tomography (PET/CT) machine (Mediso, Budapest, Hungary) was used for in vivo imaging specifically whole-body helical PET/CT scans. Imaging settings were: single field of view (FOV) PET scans (98.5 mm) which took 10 min for each mouse and helical CT scans (50 kVp/980 µA, 720 projections) both took place one hour after the administration. Each mouse received an injection of approximately 10 MBq of tested radiopharmaceutical. To prevent the mice’s eyes from drying out during anaesthesia eye ointment (Ophthalmo-Azulen, Zentiva, CR) was applied. Image reconstruction was performed using Mediso Tera-Tomo 3D PET iterative reconstruction (Mediso Medical Imaging Systems, Budapest, Hungary). Both reconstruction and data evaluation were performed in Mediso InterView FUSION software (Mediso Medical Imaging Systems, Budapest, Hungary) (Mediso, Budapest, Hungary). Final images were normalised to injected activity and animal weight. All organs with radiopharmaceutical accumulation were roughly delineated on the images, while their SUVmax value was recorded. The SUV41% (Standardized Uptake Value 41%) was then calculated as 41% of each SUVmax value of given hotspot and the ROI was delineated based on this value (Boellaard et al. [2015]). All images were exported in maximum intensity projection (MIP) mode. The results from the ex vivo biodistribution study were subjected to statistical analysis, namely unpaired Student’s t-test (Microsoft Excel 365, USA).

The target of a further series is PSMA. The settings on record: PSMA affinity, cited from earlier work.
Series [3] in a line: Radiochemical stability in physiological pH water environment. The class given is physicochemical. Particulars: pH 7, 37 °C; for Stability in Physiological pH (%): radiochemical purity, n = 1. The procedure:
(§2) Quality control, i.e. radiochemical purity, of the ^68Ga-labelled PSMA inhibitors was evaluated by analytical high performance liquid chromatography (HPLC; Dionex UltiMate 3000, Thermo Scientific, Waltham, Massachusetts, USA) using the following equipment: ACE 3 C18 column; 150 × 3 mm, 3 μm (Advanced Chromatography Technologies Ltd, Aberdeen, UK), with gradient elution A: H2O/acetonitrile (ACN); B:0.1% trifluoroacetic acid (TFA)/H2O: 0–3 min, 0% ACN; 3–10 min, 0 − 50% ACN; 10–13 min, 50 − 80% ACN; 13–15 min, 80–0% ACN, for 15 min at a flow rate of 1 mL/min. Radiometric detection was performed using a GABI Star radiodetector (Raytest GmbH, Straubenhardt, Germany) and for chromatogram quantification Chromatography Data System (CDS) - Chromeleon software (Thermo Scientific, USA) was used. The actual sample injection was performed using a Hamilton microinjector (Hamilton, USA).
Radiochemical stability in a physiological pH water environment was determined as follows: 100 µL of acetate buffer (1.1 mol/L) was added to the labelled preparation and the pH was then checked with a pH indicator paper to be 7. The mixture was further incubated at 37 °C and after 30, 60 and 120 min, 10 µL aliquot was used for HPLC analysis of radiochemical purity.

For series [4], the system named is human plasma proteins. Kind of series: Binding to human plasma proteins. The class given is in vitro ADME. The settings on record: for Protein binding (%): human plasma, 37 °C, n = 2. As to the method: as §1
Series [5] can be described thus: Stability in human plasma/serum (radiochemical purity by HPLC). The class given is in vitro ADME. Particulars: 37 °C, incubation time 0 min, n = 1.
Series [6] deals with human plasma proteins. Particulars: cited from earlier work.
For a further series, the system named is mouse serum proteins. More on the design: method as in Umbricht et al. [2018]. The settings on record: ref Umbricht et al. [2018]; cited from earlier work.
Series [7] in a line: Stability in human plasma/serum (radiochemical purity by HPLC). The class given is in vitro ADME. The settings on record: radiochemical purity, 37 °C, n = 1. As to the method:
as §2
Plasma stability was determined as follows. To 100 µL of ⁶⁸Ga-P15 with radioactivity of 45 kBq/100 µL, 400 µL of human plasma was added and mixed. The mixture was incubated at 37 °C and 100 µL samples were taken at 30, 60 and 120 min. These samples were then mixed with 200 µL of acetonitrile and placed on a shaker for 1 min. The sample was then centrifuged at 15,000 rpm for 3 min. After centrifugation, the supernatant was collected for radiochemical purity analysis by HPLC. The same procedure was applied when determining plasma stability of ⁶⁸Ga-P16, ⁶⁸Ga-P19, and ⁶⁸Ga-PSMA-617.

Consider `O=C(O)CC[C@H](NC(=O)N[C@@H](CCCCNC(=O)[C@H](Cc1ccc2ccccc2c1)NC(=O)[C@H]1CC[C@H](CNC(=O)CN2CCN(CC(=O)O)CCN(CC(=O)O)CCN(CC(=O)O)CC2)CC1)C(=O)O)C(=O)O` [PSMA-617, Glu-urea-Lys-2-Nal-L-Ala-CHX-DOTA, reference compound], for which the fraction unbound at 0 min, 2.25 kBq/100 µL in [1] (incubation time 0 min) is 0.47. Moreover, the fraction unbound at 120 min, 2.25 kBq/100 µL in series [1] (incubation time 120 min) is 0.46. Besides, the “tumour-to-background ratio, fold higher than [68Ga]Ga-P19” value in [2] (two hours after administration) is reported as about 1.5 fold. Moreover, the Ki at PSMA (ref Benešová et al. [2015]) was 2.34 nM.
As for `O=C(O)CC[C@H](NC(=O)N[C@@H](CCCCNC(=O)[C@@H](NC(=O)c1ccc(CNC(=O)CN2CCN(CC(=O)O)CCN(CC(=O)O)CCN(CC(=O)O)CC2)cc1)C(c1ccccc1)c1ccccc1)C(=O)O)C(=O)O` [P19, Glu-urea-Lys-3,3-diphenyl-L-Ala-AMBA-DOTA], in [2] (two-hours p.i.), the tumour-to-blood ratio is reported as 9.1 ± 1.7 and the tumour-to-muscle ratio stood at 47.8 ± 12.4. In [3] (each time-point tested (30, 60, 120 min)), the “Radiochemical purity in physiological pH environment” value was “highest stability”.
Turning to `O=C([O-])CN1CCN(CC(=O)[O-])CCN(CC(=O)NCC2CCC(C(=O)NC(Cc3ccc4ccccc4c3)C(=O)NCCCCC(NC(=O)NC(CCC(=O)O)C(=O)O)C(=O)O)CC2)CCN(CC(=O)[O-])CC1.[68Ga+3]` (centres unmarked) [[^68Ga]Ga-PSMA-617, reference compound], the “Protein binding (%)” value in the series on human plasma proteins [4] (incubation time 0 min) amounted to 52.6%; in the series on human plasma proteins [4] (incubation time 30 min), 52.9%; in the series with human plasma proteins [4] (incubation time 60 min), 53.3%; in the series with human plasma proteins [4] (incubation time 120 min), 54.3%. Besides, the “Binding rate to human plasma proteins” value in the series with human plasma proteins [4] (overall statement, incubation up to 120 min) is “approximately 54%”. Also, the “Stability in human serum (%)” value is given as 98.4% in [5], 97.8% in series [7] (incubation time 30 min), 98.2% in [7] (incubation time 60 min) and 98.7% in series [7] (incubation time 120 min). The “Binding to plasma proteins” value in the series on human plasma proteins [6] (human, ref Benešová et al. [2018]) is 59%. In addition, the “Binding to human plasma proteins” value in the series with human plasma proteins [6] (ref Umbricht et al. [2018]) is 59%. Besides, the tumour-to-blood ratio in series [2] (one-hour p.i.) turned out to be 5.5 ± 2.0; in series [2] (two-hours p.i.) it was 13.6 ± 7.0. For the same compound, the tumour-to-kidney ratio amounted to 0.12 ± 0.03 in series [2] (one-hour p.i.) and 1.26 ± 0.46 in [2] (two hours post injection). The tumour-to-muscle ratio in [2] (two-hours p.i.) turned out to be 68.4 ± 66.1. The “Binding to mouse serum proteins” value with mouse serum proteins is listed as 6%. In addition, the “Stability in Physiological pH (%)” value in series [3] (incubation time 0 min) was determined as 98.4%; in [3] (incubation time 30 min), 98.5%; in [3] (incubation time 60 min), 98.9%; in [3] (incubation time 120 min) it was 98.5%.
As for `NCCCCC(NC(=O)NC(CCC(=O)O)C(=O)O)C(=O)O` (centres unmarked) [Glu-urea-Lys], the Ki at PSMA (ref Banerjee et al. [2008]) was 15.2 nM.
Regarding `O=C(O)CCC(NC(=O)NC(CCC(=O)O)C(=O)O)C(=O)O` (centres unmarked) [Glu-urea-Glu], the inhibition constant (Ki) at PSMA (ref Kozikowski et al. [2001]) was 47 nM.
In the case of `O=C(O)CC[C@H](NC(=O)N[C@@H](CCC(=O)N[C@H](Cc1ccc2ccccc2c1)C(=O)N[C@H]1CC[C@H](NC(=O)CN2CCN(CC(=O)O)CCN(CC(=O)O)CCN(CC(=O)O)CC2)CC1)C(=O)O)C(=O)O` [P15, Glu-urea-Glu-2-Nal-D-Ala-NH-CHX-NH-DOTA], the figures for the “specific accumulation (tumour), fold lower than [68Ga]Ga-PSMA-617” value in [2] (one-hour p.i.) and in [2] (two-hours p.i.) were 7 fold and “more than 17.5 fold”, respectively.
